According to EP2420842A1, “In vivo imaging of calcified lesions” (Rheinisch-Westfälische Technische Hochschule Aachen (RWTH), priority 2010, dated 2012):

Experiments:
[1] = test system: calcifications; assay: In vivo whole body fluorescence, 2D mode (FMT instrument); set-up: species or system DBA/2 mice; conditions: standard sensitivity settings
Protocol: (§1) We used the FMT™ 2500 instrument from VisEn Medical Inc. (Bedford, MA). Mice were anesthetized with Isofluran (1.5% air 2L/min), depilated in the scanning area and a background measurement was taken for both wavelengths (680 nm and 750 nm). After this procedure the animals received both OsteoSense 750® (2 nmol in a volume of 150 µl) and Fetuin-A Alexa 680 (50 µl of a 7mg/ml solution) by intraperitoneal injection. 24 h after this application, the mice were analyzed in the FMT again and the fluorescence intensity was detected. Reconstruction of the data was performed by VisEn software.

[2] = test system: calcifications; assay: Explanted organ fluorescence, 2D reflectance imaging and ROI quantification after co-injection of both probes; format: in vivo, DBA/2 mice
[3] = test system: calcifications; assay: In vivo 3D fluorescence molecular tomography of whole mice; set-up: species or system DBA/2 mice
Protocol: as §1

[4] = test system: calcifications; assay: Combined fluorescence molecular tomography and micro computed tomography (CT-FMT fusion); format: in vivo, mice
Protocol: A dual energy µCT for small animals (TomoScope DUO, CT-Imaging, Erlangen, Germany) was used for anatomical image acquisition. The two electron tubes were both run at energies of 65KV. Each flat panel detector acquired 720 projections at 5 fps, containing 1032x1012 pixels with a pixel size of (50µm)^2. A full rotation was performed and the scan time was 90 seconds per subscan covering 30.8 mm in the transversal direction. Two subscans were acquired to cover almost the entire mouse body. A Feldkamp algorithm was used for reconstruction with isotropic voxel size of […], dimensions of 600x500x440, field of view of 42mm x 35mm x 30.8mm and a soft reconstruction kernel (T10).
The FMT probe was injected 24 hours before imaging through i.v. tail vein injection. Hair was removed with depilatory crème around the region of interest. For preparations and imaging, mice were anesthetized with Isofluran. […]
The reconstructed 3D data sets from CT and FMT were fused by computing a rigid body transformation minimizing the residual error between fiducial markers detected in both modalities. […] The average number of markers that were found in both modalities was 12 with average fiducial error of 0.174mm, which was evaluated on a representative set of 31 scans. […]

[5] = test system: calcified lesions; assay: Histology: staining of calcified lesions with unlabelled or Alexa Fluor 488 labelled fetuin-A (injected or applied to sections); format: in vivo, fetuin-A deficient mice
Protocol: The mice were injected with unlabelled or Alexa Fluor® 488 coupled fetuin-A. They received 100 µl / 25 g body weight of a 7 mg/ml solution. Five hours after injection the mice were killed, organs were harvested, embedded in TissueTek (Sakura), and snap-frozen and in liquid nitrogen. Serial cryotome sections were prepared and fixed in ice cold acetone. For general histology hematoxilin/eosin staining and von-Kossa staining were performed.
To localize unlabelled fetuin-A, sections were incubated for one hour with a homemade polyclonal rabbit anti bovine fetuin-A antibody followed by secondary goat anti rabbit Alexa Fluor® 546 antibody and DAPI staining. To localize calcified lesions, sections were incubated with Alexa Fluor® 488-coupled fetuin-A for one hour and then were counterstained with DAPI. Sections of organs from mice injected with Alexa Fluor® 488 labelled Fetuin A were stained with DAPI only.

Row | Molecule | whole body 2D scan signal ([1]; D2, Fetuin-A+/+ wildtype mice) | whole body 2D scan signal ([1]; D2, Fetuin-A-/- mice) | combined signal from regions of interest (ROI), kidneys ([2]; Fetuin-A-/- mice, kidneys) [counts/energy] | combined signal from regions of interest (ROI), lungs ([2]; Fetuin-A-/- mice, lungs) [counts/energy] | staining of heart (explanted organ) ([2]; fetuin-A deficient mice) | staining of brown fat, lungs and kidneys (explanted organs) ([2]; fetuin-A deficient mice, heavily calcified organs) | tissue accumulation, Fetuin-A-/- versus wildtype, kidneys ([2]; kidneys) | tissue accumulation, Fetuin-A-/- versus wildtype, lungs ([2]; lungs) | signal (2D reflectance images) ([2]; tissues (brown fat, heart, lung, kidneys) from wildtype mice, OsteoSense at both 1-fold and 10-fold sensitivity setting) [Count/Energy] | combined signal from regions of interest (ROI), kidneys ([2]; wildtype mice, kidneys) [counts/energy] | combined signal from regions of interest (ROI), lungs ([2]; wildtype mice, lungs) [counts/energy] | 3D fluorescence tomography staining pattern ([3]; DBA/2 wildtype mouse (Fig. 6A, B)) | excretion route (staining of the digestive tract, signal associated with faeces) ([3]; digestive tract) | 3D fluorescence tomography signal ([3]; fetuin-A deficient (knockout) mouse (Fig. 6D)) | 3D fluorescence signal strength ([3]; wildtype and knockout animal (Fig. 6A, C), higher in wildtype than in knockout) | CT-FMT fused signal localization ([4]; D2, fetuin-A+/+ wildtype mice) | CT-FMT fused signal localization ([4]; D2, fetuin-A-/- mice) | lesion size detected compared with established histology methods (H/E, von Kossa) ([5]; Fig. 1, injected into live animals or applied to histological sections) | detection of lesions in serial sections of the heart ([5]; Fig. 2, fetuin-A deficient mouse, compared with Hematoxylin-Eosin and von Kossa) | staining of calcified lesions ([5]; fetuin-A deficient mice, both in vivo (injected) and on sections)
1 | Fetuin-A Alexa 680: Fetuin-A monomer (Sigma Aldrich, F2379), purified by gel chromatography, coupled to Alexa Fluor® 680 dye | no signal | strong signals | 6740 | 3303 | stained weakly | strongly stained | increased over six-fold | almost doubled | 0.25 | 1025 | 1816 | outlined the gut, kidneys and the brown fat pad in the neck | at least partially excreted through this route | highly detected in the neck and in the left kidney but also in the gut | much higher | low signal in the digestive tract | faint signal in the neck and the thorax, but a higher one in the kidney and the digestive tract |  |  | 
2 | Alexa Fluor® 488-labelled fetuin-A: Fetuin-A monomer (Sigma Aldrich, F2379), purified by gel chromatography, coupled to Alexa Fluor® 488 dye (conjugate, UniProt P12763 19-359, looked up, Alexa Fluor 488 dye, Fetuin-A monomer (Sigma Aldrich, F2379), purified by gel chromatography, coupled to Alexa Fluor® 488 dye) Alpha-2-HS-glycoprotein: IPLDPVAGYKEPACDDPDTEQAALAAVDYINKHLPRGYKHTLNQIDSVKVWPRRPTGEVYDIEIDTLETTCHVLDPTPLANCSVRQQTQHAVEGDCDIHVLKQDGQFSVLFTKCDSSPDSAEDVRKLCPDCPLLAPLNDSRVVHAVEVALATFNAESNGSYLQLVEISRAQFVPLPVSVSVEFAVAATDCIAKEVVDPTKCNLLAEKQYGFCKGSVIQKALGGEDVRVTCTLFQTQPVIPQPQPDGAEAEAPSAVPDAAGPTPSAAGPPVASVVVGPSVVAVPLPLHRAHYDLRHTFSGVASVESSSGEAFHVGKTPIVGQPSIPGGPVRLCPGRIRYFKI |  |  |  |  |  |  |  |  |  |  |  |  |  |  |  |  |  | also detected much smaller lesions | enabled the detection of an additional very small lesion | readily stained calcified lesions
